This is an account of results in patent publication US9345245B2, “Synthetic compounds for vegetative ABA responses” (THE REGENTS OF THE UNIVERSITY OF CALIFORNIA, priority 2012, dated 2016).

One experiment has as its target T1, PYL5 (Arabidopsis thaliana, UniProt Q9FLB1).
T1 construct: 6xHis (N); made in house; BL21[DE3]pLysS for the GST-PP2Cs
T1 sequence (Q9FLB1 1-203): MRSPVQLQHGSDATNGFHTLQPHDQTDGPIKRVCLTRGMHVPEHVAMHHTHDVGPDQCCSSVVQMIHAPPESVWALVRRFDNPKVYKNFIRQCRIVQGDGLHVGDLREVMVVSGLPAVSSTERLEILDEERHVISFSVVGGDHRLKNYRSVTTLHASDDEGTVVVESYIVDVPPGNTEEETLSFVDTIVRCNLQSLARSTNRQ
T1 sequence (Q9CAJ0 23-511 partner): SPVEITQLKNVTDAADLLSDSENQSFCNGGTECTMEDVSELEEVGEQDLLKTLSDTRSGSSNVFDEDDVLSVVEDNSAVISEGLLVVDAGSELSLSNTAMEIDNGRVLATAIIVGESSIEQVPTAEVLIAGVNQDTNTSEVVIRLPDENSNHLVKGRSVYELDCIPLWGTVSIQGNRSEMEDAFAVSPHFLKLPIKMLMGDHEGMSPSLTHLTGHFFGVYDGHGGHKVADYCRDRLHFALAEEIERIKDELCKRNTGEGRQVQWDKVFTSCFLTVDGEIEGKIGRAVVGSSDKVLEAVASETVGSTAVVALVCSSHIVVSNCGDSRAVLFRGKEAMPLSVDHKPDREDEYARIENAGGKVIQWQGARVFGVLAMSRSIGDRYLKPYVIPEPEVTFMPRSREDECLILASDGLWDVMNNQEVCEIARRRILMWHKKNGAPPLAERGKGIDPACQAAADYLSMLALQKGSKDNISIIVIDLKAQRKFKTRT
Nature of the experiment: Receptor-mediated PP2C inhibition assay, receptor PYL5. The format is biochemical. On the procedure:
HAB1 and PYL proteins were expressed and purified as described previously (Park S Y, et al. (2009) Abscisic Acid Inhibits Type 2C Protein Phosphatases via the PYR/PYL Family of START Proteins. Science 324(5930):1068-1071), with minor modifications. To obtain GST-HAB1, -ABI1 and -ABI2 fusion proteins, the HAB1 cDNA was cloned into pGex-2T whereas ABI1 and ABI2 cDNAs were cloned into the vector pGex-4T-1. Expression was conducted in BL21[DE3]pLysS host cells. Transformed cells were pre-cultured overnight, transferred to LB medium and cultured at 30° C. to culture A600 of ˜0.5. The culture was then cooled on ice and MnCl2 added to 4 mM and IPTG added to 0.3 mM. After 16 hours incubation at 15° C., cells were harvested and recombinant proteins were purified on glutathione agarose as described previously (Park S Y, et al. (2009). To obtain 6×His-PYL receptor fusion proteins, receptor cDNAs for all 13 ABA receptors were cloned into the vector pET28 and expressed and purified as described previously (Mosquna A, et al. (2011) Potent and selective activation of abscisic acid receptors in vivo by mutational stabilization of their agonist-bound conformation. PNAS 108(51):20838-20843); this yielded soluble and functional protein (assessed using receptor-mediated PP2C inhibition assays) for all receptors except PYL7, PYL11 and PYL12. […]

In the next experiment the test system is ABA-responsive genes. Put plainly: ATH1 microarray analysis of seedlings. The format is in vivo, Arabidopsis. The conditions noted are these: wild-type seedlings; 25 μM. On the procedure:
FIG. 9. LC66C6 induces numerous ABA-responsive genes. […] Ten-day old seedlings were treated with carrier solvent (DMSO) or either 25 μM ABA, pyrabactin or LC66C6 for 8 hours. Total RNA was then prepared labeled and hybridized to ATH1 microarrays. Data plotted are log 2 transformed average expression values for ˜13K probes that were detectable across all experiments. Data shown are averages determined from triplicate biological replicates. (C) and (D) show the expression of a reporter gene in different plant tissues after treatment with vehicle (DMSO), pyrabactin, LC66C6, or (+)-ABA.
Total RNA was isolated using RNAeasy Plant Mini Kit (Qiagen, USA) according to the manufacturer's instructions. cDNA synthesis, labeling and hybridization to the Arabidopsis ATH1 chips (Affymetrix, USA) were performed by the IIGB Core Instrumentation Facility of University of California at Riverside using Affymetrix protocols. Biological triplicate samples were hybridized for DMSO controls, ABA, pyrabactin and quinabactin treatments; compound were applied at 25 μM final concentration and RNA prepared from frozen tissue after 6 hours exposure to compounds or controls. Expression signals for probe sets were calculated and normalized by MASS Statistical Algorithm (Affymetrix, USA). Experimental filtering of array data was performed for the presence of signal in all experiments. […]

The next experiment has as its system Arabidopsis seeds. Particulars: pyr1 single mutant; Park et al. 2009; cited from earlier work.

Turning to `O=S(=O)(NCc1ccccn1)c1ccc(Br)c2ccccc12` [pyrabactin], on PYL5 (maximal (saturating) inhibition), the “PP2C inhibition at saturation” value was about 40%. Moreover, on PYL5 (read-out: IC50 (activation of PYL5)), the IC50 was 900 nM. For the same compound, the “genome-wide gene expression pattern compared with ABA” value with ABA-responsive genes is recorded as “did not induce an expression pattern similar to that of ABA”. Also, the “germination of pyr1 mutant” value in the experiment on Arabidopsis seeds is “pyr1 mutant germinates”.
